Results: publication PMC11288129, “Diversely evolved xibalbin variants from remipede venom inhibit potassium channels and activate PKA-II and Erk1/2 signaling” (BMC Biology, 2024)
“Also recorded” adds a separate entry of the source. Positions of bridges follow the written chain, without caps; N, C: chain ends. No end group written: not given here.

System: PKA-II (phospho-RIIα/β) in rat DRG neurons
Experiment: High-content imaging of PKA-II activity (pRII) in DRG sensory neurons
Assay type: cell-based
Conditions: for PKA-II activation: 5 and 30 min, 0.005 to 0.8 µg/µL; for increase in phospho-PKA-II intensity: 5 min; for pRII response by neuron size: xibalbins 0.8 µg/µL
Method: To gauge sensory neuron activity in response to various activating stimuli, including electrical activity, phosphorylation state detection of protein kinase A type II (PKA-II) and MAP kinase Erk1/2 can act as surrogate measurements. Consequently, we tested for increased phosphorylation states in a concentration-dependent manner following exposure to xibalbins. Dissociated DRG neurons were cultured overnight and then exposed to increasing concentrations of the corresponding xibalbins for 5 min and 30 min, respectively. As a positive control, forskolin (Fsk) was also used to induce cAMP synthesis. The activity of PKA-II was monitored by antibodies directed against the phosphorylation site of the inhibitory regulatory subunits RIIα/β, which is exclusively accessible when the catalytic kinase domain is released during kinase activation. For measuring Erk1/2 activity, phospho-sites on Erk1/2 (T202/Y204) were monitored through immunofluorescence, as these sites are phosphorylated during activation. Cellular images were captured using HCI microscopy (Fig. 8A), and the average intensity of each phospho-antibody was quantified (Fig. 8B).
Fig. 8 A Representative images of rat DRG neurons stimulated with PBS (Ctrl) and xib1b (0.8 µg/µL). Cells were stained for UCHL1, pRII, pERK1/2, and Hoechst followed by fixation and staining with standard immunocytochemistry protocols. Green-encircled neurons indicate automatically selected objects. Scale bar: 100 µm. B Mean intensities of UCHL1, pRII, and pERK1/2. The same UCHL1 intensities were observed among tested groups. Forskolin (Fsk), an activator of adenylyl cyclase, was used as a positive control. Fsk at 6 µM concentration induced an increase in pRII and pERK1/2 intensities at 5 and 30 min. Number of analyzed cells per replica: 750 ± 200. Eight independent replicas. C–F Concentration responses of xibalbin toxins (0.005 to 0.8 µg/µL) and mean intensities of pRII and pERK1/2 at 5 min and 30 min. G–H Size versus pRII and pErk1/2 intensities of cells treated with 0.8 µg/µL of xib1 and xib13. Small-sized cells were responding to xibalbins. Statistical significance was assessed using one-way ANOVA with Dunnett’s post hoc test. Data represent mean ± S.E.M (standard error of the mean), n = 4, see “Methods” for details and Additional File 6: Table S2 for individual data values
Male Sprague Dawley rats (250–400 g, 8–16 weeks old) were obtained from Envigo. Rats were kept in 12 h of light/darkness cycles. All experiments were performed in accordance with the German animal welfare law with permission of the District Government for Nature and Environment, NRW (84–02.05.20.13.045, 4.18.003). Rats were scarified by slow inhalation of CO2 which was followed by decapitation. DRGs were extracted from rats, deheated, pooled, and incubated in Neurobasal A/B27 medium (Invitrogen, #12349–015) supplemented with B-27 (Invitrogen #17504), L-glutamine 1:400, L-glutamate 1:270.3, and penicillin/streptomycin 1:100 containing 0.2 U/mL collagenase P (collagenase P, Roche, #1213857) and incubated for 1 h at 37 °C, 5% CO2. DRGs were dissociated with pasteur pipettes and axon stumps were separated by BSA (Sigma-Aldrich, # A2153-100G) gradient centrifugation (14% BSA, 120 g, 8 min). Cells were resuspended in NBA medium, plated in 96-well imaging plate (Greiner BioOne Sensoplate, Black, #655896) precoated with poly-L-ornithine hydrochloride (0.1 mg/ml Sigma, #P2533)/laminin (5 µg/ml Invitrogen, #23017–015), and incubated overnight at 37 °C, 5% CO2.
DRGs were stimulated after overnight incubation. Compounds were prepared as tenfold concentrated stock solutions, diluted in PBS (PAA, cat# H15-002), in v-bottom plates; 50 µL media from culture wells were mixed with the […] stock solutions, and 50 µL added back to the respective wells. Stimulation was performed with automated multichannel pipette and cells were kept in heated block during the stimulation. […]

Sequence	PKA-II activation	increase in phospho-PKA-II intensity (0.4 µg/µL (74 µM), q = 3.29)	increase in phospho-PKA-II intensity (0.8 µg/µL (148 µM), q = 4.17)	change in phospho-PKA-II intensity (30 min)	pRII response by neuron size
KRSCIRRFGRCDHRPNDCCYNSSCRCNLWGSNCRCQRMGLFQKWGK (disulfide 4-19, 11-24, 18-35, 26-33) [xib13]	increase PKA-II and Erk1/2 sensitization signaling; also recorded: increased PKA-II and pErk1/2 activity	up to 1.21 fold	up to 1.21 fold	No change	increased phosphorylation signals in both small-sized and large-sized sensory neurons
RLFCIRHHKYCGHRPKRCCSGLFCRCNTFGTNCRCQSKGALGKLI (disulfide 4-19, 11-24, 18-35, 26-33) [xib1]	increase PKA-II and Erk1/2 sensitization signaling; also recorded: increased PKA-II and pErk1/2 activity	–	–	–	increased phosphorylation signals in both small-sized and large-sized sensory neurons
